Reference: paper PMC9503133, “In Vitro Release, Mucosal Permeation and Deposition of Cannabidiol from Liquisolid Systems: The Influence of Liquid Vehicles” (Pharmaceutics, 2022)
Several values for one entry are separate records, joined by “and”; a condition that tells them apart may be missing. Identical values can stand only once. Like-named read-outs stand apart in the source and are kept apart here. Marks after values point to notes of the source that are not given here.

Assays:
[1] = cited from earlier work
[2] = CBD solubility in liquid vehicles (excess CBD, shaking 24 h, HPLC); assay type: physicochemical
Description: The solubility of CBD in the investigated liquids was examined by adding the excess mass of CBD into 1 g of each test liquid in a test tube. The mixture was sonicated (1 h) using an ultrasonicator (Model LUC-405, Daihan Labtech Co., Ltd., Namyangju-si, Korea) and agitated constantly (37 ± 0.5 °C, 24 h) using a shaking water bath (Model LSB-030S, Daihan Labtech Co., Ltd., Namyangju-si, Korea), and the supernatant was filtered through a 0.45 μm syringe filter. The obtained filtrate was weighed, diluted and quantified by HPLC assay. The CBD solubility in the terms of the mg of CBD per g of liquid was calculated.
The amount of CBD was assessed using a modified HPLC method. An Agilent series 1260 combined with an Agilent ZORBAX Eclipse Plus column (C18, 100 × 4.6 mm, 3.5 μm) (Agilent Technologies, Inc., Santa Clara, CA, USA.) was used. The chromatographic separation was attained in 10 min using an isocratic protocol with a mixture of water:acetonitrile (30:70 v/v) comprising 0.1% formic acid set at a 1.5 mL/min flow rate. The injection volume was 20 µL. The column temperature was set at 45 °C, while the UV detector was set to 220 nm.

[3] = parameters: method as in PMID 34774694, PMID 32882367; conditions: ref [3],[4]; cited from earlier work

C=C(C)[C@@H]1CCC(C)=C[C@H]1c1c(O)cc(CCCCC)cc1O [CBD, Cannabidiol]
solubility of CBD in 50% EtOH ([1]; 50% EtOH receiver medium, ref Casirahi et al. [44]): 2200 ± 100 µg/mL
water solubility ([1]; ref [3],[4]): 5 ppm
CBD Solubility ([2]; in CM, 37 ± 0.5 °C): 386.77 ± 48.85 ^b mg/g
CBD Solubility ([2]; in DEGEE, 37 ± 0.5 °C): 579.46 ± 11.79 ^a mg/g
CBD Solubility ([2]; in EtOH, 37 ± 0.5 °C): >1000 mg/g
CBD Solubility ([2]; in OM, 37 ± 0.5 °C): 540.31 ± 4.59 ^a mg/g
CBD Solubility ([2]; in P20, 37 ± 0.5 °C): 261.73 ± 39.33 ^c mg/g
CBD Solubility ([2]; in PEG, 37 ± 0.5 °C): 342.18 ± 49.90 ^b mg/g
CBD Solubility ([2]; in PG, 37 ± 0.5 °C): 521.04 ± 55.42 ^a mg/g
CBD Solubility ([2]; in glycerin, 37 ± 0.5 °C): 0.09 ± 0.03 ^d mg/g
solubility at 24 h ([2]; simulated saliva fluid (SSF), simulated saliva fluid pH 6.8, read-out: solubility of CBD in pH 6.8 SSF): < 5 µg/mL
solubility at 24 h ([2]; water, converted with the specific gravity of water, read-out: CBD solubility in water): < 5 µg/mL
calculated log n-octanol–water partition coefficient (Kow) [3]: 8 and ~ 8
